Experiments:
[1] = system: HIV-1ROJO; test: Antiviral activity in infected PBMCs (reverse transcriptase in supernatant); format: cell-based
Protocol: (§1) The activity of the certain compounds of the invention was evaluated in peripheral blood mononuclear cells (PBMCs) infected with the low passage, clinical isolate HIV-1ROJO to generate a measure of the efficacy of these compounds in acutely infected cells. The use of these normal human cells allows an estimate of the therapeutic index of these compounds to be made. Fresh PBMCs from two donors were pooled and stimulated with PHA-P for 48-72 hours. The cells were then cultured in the presence of IL-2 to maintain the cell division initiated by the mitogenic signal. The virus was added at a multiplicity of infection of 0.1. The cells were cultured for 7 days post infection prior to the evaluation of efficacy. Viral replication was measured by the level of reverse transcriptase activity in the supernatant and cytotoxicity was measured with the MTS assay.

[2] = system: peripheral blood mononuclear cells (PBMCs); test: Cytotoxicity in PBMCs (MTS assay); format: cell-based, human; conditions: read-out: TC50 (μM): 50% cytoxicity (MTS), 7 days
Protocol: as §1

[3] = system: HCT-116 cells; test: Cell cycle analysis with propidium iodide (FACS); format: cell-based, human; conditions: exposure 24, 48 and 72 hours
Protocol: The percentage of cells in the G1, S and G2/M phases of the cell cycle was determined by staining DNA with propidium iodide and quantifying the number of cells with a 2N or 4N DNA complement by flow cytometry. Alterations in the distribution of cells across the cell cycle in response to exposure to the Cdk inhibitors was evaluated in this manner.
3 sets of HCT-116 cells (100,000 cells/set) were cultured in the presence of a test compound in T-25 flasks according to Table 1 below. Analysis was performed at 24, 48 and 72 hours. Adherent cells were collected by trypsinization, combined with floating cells in Falcon 12×75 flow cytometric tubes, and harvested by centrifugation. The media was decanted from the cell pellet, 100 μl of PI stain was added and the cells were incubated at 37° C. for 20-25 minutes. The cell count was preferably no greater than 2×10^6-4×10^6/ml. An equal volume (100 μl) of PI salt was then added to the cells, which were then incubated at 4° C. for 1-2 hours. The stained cells were analyzed on a Becton Dickinson FACScan flow cytometer. Samples were protected from light.

[4] = system: HCT-116 cells; test: Calcein AM viability assay, HCT-116; format: cell-based; conditions: Homo sapiens, non-protein adjusted, Table 6
Protocol: The potency of Cdk inhibitors, as measured by loss of cellular viability, was determined with the Calcein AM assay (Molecular Probes). Calcein AM is a substrate of intracellular esterases, which is cleaved only in viable cells to generate a fluorescent product that can be quantified with a fluorescent plate reader. The fluorescent signal is proportional to the number of viable cells, and thus loss of signal in response to the exposure of cells to Cdk inhibitors correlates with a loss of viability. This assay can distinguish cell cycle arrest, in which cells may still by viable, from loss of viability and is thus well suited for the evaluation of Cdk inhibitors. A compound that is a potent cytotoxic, may cause significant loss of cell viability in such assay.
Cellular IC50's were determined in the human colorectal carcinoma cell line, HCT-116, and the normal human fibroblast, IMR90. Protein adjusted IC50's were also determined in HCT-116.
HCT-116 or IMR90 cells were recovered from sub-confluent plates by trypsinization and 1,000 or 4,000 cells, respectively, were plated in 24-well dishes and incubated overnight at 37° C., 5% CO2. […]
A 5 μM Calcein AM solution was prepared by dissolving a 50 μg aliquot of Calcein (Molecular Probes catalog #C3100) in 50 μl DMSO. […] (protected from light) and the fluorescent signal was read on a fluorescent plate reader (excitation 485/20 and emission 530/25).

[5] = system: HCT-116 cells; test: Clonogenic survival assay with HCT-116 cells; format: cell-based, human; conditions: at 100 nM, time-course (FIG. 3)
Protocol: This assay was used to determine the concentration of a compound that results irreversible loss of viability after a specified period of exposure. Essentially, cells are exposed to compound for a period of 1, 2 or 5 days, and are then transferred to compound-free growth medium. After continued incubation in the compound-free medium for a number of days, the number of colonies recovered is counted as an estimate of the number of surviving cells.
Media (RPMI-1640, 10% FCS, pen/strep) was pre-warmed to 37° C. in a water bath. Cells were incubated and grown at 37° C., 5% CO2. Cells were recovered by trypsinization from sub-confluent plates and counted using a hemocytometer. 1×10^4 cells were plated in 25 mls of media in a 15 cm tissue culture dish. 14 plates were set up for each test compound, and were incubated overnight at 37° C. The compound was diluted into media at 7 concentrations and the media on the cells was replaced with that containing the test compound. Two plates were set up for each concentration of the compound to be tested, as well as two control plates without compound. […] Colonies were stained with crystal violet solution (0.4% crystal violet, 20% ethanol) for 5 minutes, washed twice with distilled water, and counted.

Compound | TI: TC50/IC50 [1] | other results
Cc1cn([C@H]2C[C@H](N=[N+]=[N-])[C@@H](CO)O2)c(=O)[nH]c1=O [AZT, reference compound] | >100 | CC50 [2]: > 1 µM
CC(C)c1nn(-c2c(Cl)cccc2Cl)c2nc(Cc3ccc(OCCN4CCOCC4)c(O)c3)[nH]c(=O)c12 [Compound A32] | >10 | 
CC(C)N1CCN(C(=O)COc2ccc(-c3[nH]nc4c3C(=O)c3c(NC(=O)NN5CCOCC5)cccc3-4)cc2)CC1.Cl [Compound A37] |  | effect on cell cycle distribution (PI FACS) [3]: terminally arrested in G1 and G2, with evidence of apoptosis and endo-reduplication
CC(C)c1nn(-c2c(Cl)cc(Cl)cc2Cl)c2nc(Cc3ccc(OCCO)cc3)[nH]c(=O)c12 [Compound A61] | >10 | 
CC(C)c1nn(-c2c(Cl)cc(Cl)cc2Cl)c2nc(Cc3ccc(OCC(C)(C)O)cc3)[nH]c(=O)c12 [Compound A64] | >10 | 
O=C(Nc1cccc2c1C(=O)c1c(-c3ccc(CN4CCCC4CO)cc3)n[nH]c1-2)NN1CCOCC1 (centres unmarked) [Compound B6] |  | IC50 [4]: < 0.1 µM
COCCN1CCN(Cc2ccc(-c3[nH]nc4c3C(=O)c3c(NC(=O)NN5CCOCC5)cccc3-4)cc2)CC1.Cl.Cl [Compound B16] |  | time within which IC50 reached [5]: 30 to 60 min; effect on cell cycle distribution (PI FACS) [3]: Analogous results
CC(C)c1nn(-c2c(Cl)cccc2Cl)c2nc(Cc3ccc(CN4CCCC4)c(O)c3)[nH]c(=O)c12.Cl [Compound C3] | >10 | 
CC(C)c1nn(-c2c(Cl)cc(Cl)cc2Cl)c2nc(Cc3ccc(CNC(CO)CO)n3C)[nH]c(=O)c12.Cl [Compound C4] | >1 | 
